Tested on: isolated embryos
Experiment: Potted rate, transplant rate and seedling height, thiamethoxam co-treatment during colchicine doubling
Assay type: in vivo, maize
From the text: As used herein, the term “potted rate” or “potting rate” refers to the percent of germinated embryos successfully transferred to soil from total treated haploid embryos. The “potted rate” is used as an indication of plant health in monitoring the success of recovery and growth after treatment of haploids. As used herein, the term “transplant rate” refers to the survival of healthy plants after embryos were germinated and transferred to soil.
In addition to testing of safeners such as metcamifen, testing the effects of other compounds, such as thiamethoxam (TMX), were completed. Isolated embryos were co-treated with TMX during colchicine doubling in the doubling media. The co-treatments were allowed to incubate for 24 or 48 hours. Four genotypes representing two heterotic groups were tested with replication. The effect on potting rate from in vitro culture was evaluated.
Initial testing measured the effect of TMX at concentrations of 0, 150, or 750 mg/L for 24 or 48 hours. […] The strongest effect of TMX co-treatment seen with the 48-hour duration was at 750 mg/L TMX compared to the control.
Further testing was done and TMX was applied to isolated embryos at levels of 0, 750, 1500, 2000 mg/L during colchicine co-treatment. The co-treatments were incubated for 24 or 48 hours.
TMX was applied to isolated embryos at levels of 0, 2000, 4000, 8000 mg/L during colchicine co-treatment. The co-treatments were incubated for durations of 24 or 48 hours.
TMX was applied to isolated embryos at levels of 0, 2000, 4000, or 6000 mg/L during colchicine co-treatment. The co-treatments were incubated for durations of 24 or 48 hours. […] The highest percent transplanted rates were 86% and 83% for co-treatments 4000 mg/L at 24 hours and 6000 mg/L at 48 hours, respectively (see Table 8).

[1] = Table 6: co-treatment with colchicine, TMX 750 mg/L, 24 hours
[2] = Table 6: co-treatment with colchicine, TMX 750 mg/L, 48 hours
[3] = Table 6: co-treatment with colchicine, TMX 1500 mg/L, 24 hours
[4] = Table 6: co-treatment with colchicine, TMX 1500 mg/L, 48 hours
[5] = Table 6: co-treatment with colchicine, TMX 2000 mg/L, 24 hours
[6] = Table 6: co-treatment with colchicine, TMX 2000 mg/L, 48 hours
[7] = Table 7: co-treatment with colchicine, TMX 2000 mg/L, 24 hours
[8] = Table 7: co-treatment with colchicine, TMX 2000 mg/L, 48 hours
[9] = Table 7: co-treatment with colchicine, TMX 4000 mg/L, 24 hours
[10] = Table 7: co-treatment with colchicine, TMX 4000 mg/L, 48 hours
[11] = Table 7: co-treatment with colchicine, TMX 8000 mg/L, 24 hours
[12] = Table 7: co-treatment with colchicine, TMX 8000 mg/L, 48 hours
[13] = Table 8: co-treatment with colchicine, TMX 2000 mg/L, 24 hours
[14] = Table 8: co-treatment with colchicine, TMX 2000 mg/L, 48 hours
[15] = Table 8: co-treatment with colchicine, TMX 4000 mg/L, 24 hours
[16] = Table 8: co-treatment with colchicine, TMX 4000 mg/L, 48 hours
[17] = Table 8: co-treatment with colchicine, TMX 6000 mg/L, 24 hours
[18] = Table 8: co-treatment with colchicine, TMX 6000 mg/L, 48 hours

SMILES: CN1COCN(Cc2cnc(Cl)s2)/C1=N\[N+](=O)[O-] [TMX, thiamethoxam]
- Potted Rate Mean [1]: 52%
- Transplant Rate Mean [1]: 33%
- Potted Rate Mean [2]: 12%
- Transplant Rate Mean [2]: 9%
- Potted Rate Mean [3]: 65%
- Transplant Rate Mean [3]: 41%
- Potted Rate Mean [4]: 18%
- Transplant Rate Mean [4]: 12%
- Potted Rate Mean [5]: 74%
- Transplant Rate Mean [5]: 50%
- Potted Rate Mean [6]: 32%
- Transplant Rate Mean [6]: 21%
- Potted Rate Mean [7]: 76%
- Transplant Rate Mean [7]: 73%
- Potted Rate Mean [8]: 22%
- Transplant Rate Mean [8]: 15%
- Potted Rate Mean [9]: 82%
- Transplant Rate Mean [9]: 79%
- Potted Rate Mean [10]: 67%
- Transplant Rate Mean [10]: 61%
- Potted Rate Mean [11]: 47%
- Transplant Rate Mean [11]: 45%
- Potted Rate Mean [12]: 20%
- Transplant Rate Mean [12]: 16%
- Potted Rate Mean [13]: 68%
- Transplant Rate Mean [13]: 62%
- Potted Rate Mean [14]: 27%
- Transplant Rate Mean [14]: 26%
- Potted Rate Mean [15]: 90%
- Transplant Rate Mean [15]: 86%
- Potted Rate Mean [16]: 63%
- Transplant Rate Mean [16]: 56%
- Potted Rate Mean [17]: 86%
- Transplant Rate Mean [17]: 74%
- Potted Rate Mean [18]: 89%
- Transplant Rate Mean [18]: 83%
- Seedling height (overall plant height) (initial testing, TMX 150 or 750 mg/L, 24-hour and 48-hour): taller
- potting rate (initial testing, TMX 150 or 750 mg/L, 24-hour co-treatment): ≥ 80%

Reference: patent US20260248087A1, “GENERATING DOUBLED HAPLOID PLANTS” (Syngenta Crop Protection AG, priority 2023, published 2026)
